Experimental data as given in ChEMBL document CHEMBL1201862, “PubChem BioAssay data set” (2004).
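96-well plates; 48 h exposure; 5 concentrations. Endpoints by linear interpolation between flanking doses. Not reached: highest tested concentration assigned. GI50 = concentration required for 50% inhibition of growth.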 Calls of active or inactive are those of the source. Cut-off read from the data, not from the text of the source: active = GI50 up to about 1.1 µM and inactive = higher.

Columns and labels:
Experiment in all cases: growth of human tumour cells (NCI), 48 h
OVCAR-8 = system: OVCAR-8
HCC 2998 = system: HCC 2998
HOP-62 = system: HOP-62
A498 = system: A498
SK-MEL-5 = system: SK-MEL-5
CAKI-1 = system: CAKI-1
LOX IMVI = system: LOX IMVI
786-0 = system: 786-0
RPMI-8226 = system: RPMI-8226
OVCAR-3 = system: OVCAR-3
HCT-15 = system: HCT-15
A549 = system: A549
SK-OV-3 = system: SK-OV-3
CCRF-CEM = system: CCRF-CEM
SK-MEL-2 = system: SK-MEL-2
ACHN = system: ACHN
T47D = system: T47D
OVCAR-4 = system: OVCAR-4
NCI-H23 = system: NCI-H23
MCF7 = system: MCF7

| SMILES | GI50 (OVCAR-8) | GI50 (HCC 2998) | GI50 (HOP-62) | GI50 (A498) | GI50 (SK-MEL-5) | GI50 (CAKI-1) | GI50 (LOX IMVI) | GI50 (786-0) | GI50 (RPMI-8226) | GI50 (OVCAR-3) | GI50 (HCT-15) [µM] | GI50 (A549) | GI50 (SK-OV-3) | GI50 (CCRF-CEM) | GI50 (SK-MEL-2) | GI50 (ACHN) | GI50 (T47D) | GI50 (OVCAR-4) | GI50 (NCI-H23) | GI50 (MCF7) |
| --- | --- | --- | --- | --- | --- | --- | --- | --- | --- | --- | --- | --- | --- | --- | --- | --- | --- | --- | --- | --- |
| COC(=N)c1ncn(Cc2ccccc2)c1N | > 100 µM (inactive) | > 100 µM (inactive) | > 100 µM (inactive) | > 100 µM (inactive) | > 100 µM (inactive) | > 100 µM (inactive) | > 100 µM (inactive) | > 100 µM (inactive) | > 100 µM (inactive) | > 100 µM (inactive) | > 100 | > 100 µM (inactive) | > 100 µM (inactive) | > 100 µM (inactive) | > 100 µM (inactive) | > 100 µM (inactive) | > 100 µM (inactive) | > 100 µM (inactive) | > 100 µM (inactive) | > 100 µM (inactive) |
| O=C(O)CCC1(c2ccccc2)NC(=O)NC1=O (stereo not given) | > 100 µM (inactive) | > 100 µM (inactive) | > 100 µM (inactive) | > 100 µM (inactive) | > 100 µM (inactive) | > 100 µM (inactive) | > 100 µM (inactive) | > 100 µM (inactive) | > 100 µM (inactive) | > 100 µM (inactive) | > 100 | > 100 µM (inactive) | > 100 µM (inactive) | > 100 µM (inactive) | > 100 µM (inactive) | > 100 µM (inactive) | > 100 µM (inactive) | > 100 µM (inactive) | > 100 µM (inactive) | > 100 µM (inactive) |
| CCOC(=O)c1c(N2CCOCC2)[nH]c(=O)c(C(c2c(Cl)cccc2Cl)c2c(O)c(C(=O)OCC)c(N3CCOCC3)[nH]c2=O)c1O | 8.17 µM (inactive) | 19.4 µM (inactive) | 16.1 µM (inactive) | 8.71 µM (inactive) | 4.55 µM (inactive) | 2.31 µM (inactive) | 2.91 µM (inactive) | 2.67 µM (inactive) | 2.18 µM (inactive) | 3.48 µM (inactive) | 4.63 | 18.2 µM (inactive) | 11.2 µM (inactive) | 1.64 µM (inactive) | 4.74 µM (inactive) | 4.54 µM (inactive) | 4.01 µM (inactive) | 9.84 µM (inactive) | 7.19 µM (inactive) | 2.47 µM (inactive) |
| CS(=O)(=O)OCCN(CCOS(C)(=O)=O)c1ccc(/C=N/c2ccc(-c3csc(COc4ccccc4)n3)cc2)cc1 | 6.17 µM (inactive) | 2.26 µM (inactive) | 1.32 µM (inactive) | 2.6 µM (inactive) | 10.7 µM (inactive) | 0.853 µM (active) | 4.27 µM (inactive) | 0.429 µM (active) | 4.47 µM (inactive) | 1.24 µM (inactive) | 8.51 | 3.21 µM (inactive) | 1.69 µM (inactive) | 0.587 µM (active) | 15.7 µM (inactive) | 0.407 µM (active) | 1.32 µM (inactive) | 14.8 µM (inactive) | 2.21 µM (inactive) | 5.42 µM (inactive) |
| O=[N+]([O-])c1cccc2nccc(NCCCO)c12 | 14.5 µM (inactive) | 13.2 µM (inactive) | 17.5 µM (inactive) | 10.4 µM (inactive) | 3.9 µM (inactive) | 13.8 µM (inactive) | 12.9 µM (inactive) | 17.7 µM (inactive) | 13.6 µM (inactive) | 14.6 µM (inactive) | 8.11 | 16.5 µM (inactive) | 23.3 µM (inactive) | 14.7 µM (inactive) | 4.38 µM (inactive) | 14.3 µM (inactive) | 26.4 µM (inactive) | 11 µM (inactive) | 12.5 µM (inactive) | 12.7 µM (inactive) |
| C=C(Cl)C(Cl)(CBr)CCC(Cl)C(C)C (stereo not given) | 3.19 µM (inactive) | 4.22 µM (inactive) | 1.25 µM (inactive) | 5.21 µM (inactive) | 17.7 µM (inactive) | 1.77 µM (inactive) | 11.6 µM (inactive) | 0.337 µM (active) | 0.138 µM (active) | 1.32 µM (inactive) | 5.46 | 8.53 µM (inactive) | 26.4 µM (inactive) | 26.9 µM (inactive) | 0.619 µM (active) | 2.92 µM (inactive) | 0.156 µM (active) | 8.17 µM (inactive) | 13.7 µM (inactive) | 1.12 µM (active) |
